Columns and labels:
Format in all cases: functional, cell-based
[1] = test system: Ehrlich; assay: Cytotoxicity against mouse EAC cells assessed as reduction in cell viability after 48 hrs by trypan blue exclusion assay
[2] = Cytotoxicity against mouse DLA cells assessed as reduction in cell viability after 48 hrs by MTT assay
[3] = test system: MDA-MB-468; assay: Cytotoxicity against human MDA-MB-468 cells assessed as reduction in cell viability after 48 hrs by trypan blue exclusion assay; details: MDA-MB-468, 48 h
[4] = test system: A549; assay: Cytotoxicity against human A549 cells assessed as reduction in cell viability after 48 hrs by trypan blue exclusion assay; details: A549, 48 h
[5] = test system: MCF7; assay: Cytotoxicity against human MCF7 cells assessed as reduction in cell viability after 48 hrs by MTT assay; details: MCF7, 48 h
[6] = test system: MDA-MB-468; assay: Cytotoxicity against human MDA-MB-468 cells assessed as reduction in cell viability after 48 hrs by MTT assay; details: MDA-MB-468, 48 h
[7] = test system: A549; assay: Cytotoxicity against human A549 cells assessed as reduction in cell viability after 48 hrs by MTT assay; details: A549, 48 h
[8] = Cytotoxicity against mouse DLA cells assessed as reduction in cell viability after 48 hrs by trypan blue exclusion assay
[9] = test system: Ehrlich; assay: Cytotoxicity against mouse EAC cells assessed as reduction in cell viability after 48 hrs by MTT assay
[10] = test system: MCF7; assay: Cytotoxicity against human MCF7 cells assessed as reduction in cell viability after 48 hrs by trypan blue exclusion assay; details: MCF7, 48 h

| Structure (SMILES) | IC50 [1] [µM] | IC50 [2] [µM] | IC50 [3] [µM] | IC50 [4] [µM] | IC50 [5] [µM] | IC50 [6] [µM] | IC50 [7] [µM] | IC50 [8] [µM] | IC50 [9] [µM] | IC50 [10] [µM] |
| --- | --- | --- | --- | --- | --- | --- | --- | --- | --- | --- |
| O=C(COc1ccccc1)Nc1nc(-c2ccc(Br)cc2)cs1 | 37.1 | 60.3 | 37.1 | 52.2 | 54.3 | 37.2 | 52.9 | 55.9 | 37.2 | 54 |
| CC(C)c1ccc(OCC(=O)Nc2nc(-c3ccc(Cl)cc3)cs2)c(C(C)C)c1 | 62.8 | 54.3 | 41.1 | 48.6 | 40.1 | 41.7 | 48.8 | 54 | 62.2 | 40.6 |
| O=C(COc1ccc(F)cc1)Nc1nc(-c2ccc(Cl)cc2)cs1 | 35.9 | 35.9 | 42.9 | 36.3 | 35.5 | 42.1 | 36.5 | 35.1 | 35.3 | 35.3 |
| Cc1ccccc1OCC(=O)Nc1nc(-c2ccc(Cl)cc2)cs1 | 63.1 | 49.2 | 52.1 | 64.8 | 62.2 | 40.1 | 64.9 | 49 | 62.3 | 62.8 |
| O=C(COc1ccc(F)cc1)Nc1nc(-c2ccc(Br)cc2)cs1 | 45.3 | 42.5 | 51.7 | 51.7 | 55.5 | 52.1 | 52.1 | 43.5 | 45.5 | 56.8 |
| O=C(COc1ccc(F)cc1F)Nc1nc(-c2ccc(Br)cc2)cs1 | 44.7 | 55.8 | 44.7 | 59.1 | 52.9 | 44.2 | 58.8 | 55.3 | 44.2 | 52.1 |
| Cc1ccc(-c2csc(NC(=O)COc3ccccc3C)n2)cc1 | 54.9 | 46.5 | 51.7 | 50.1 | 53.5 | 52.1 | 50.9 | 46.6 | 54.4 | 53.2 |
| CC(C)c1ccccc1OCC(=O)Nc1nc(-c2ccc(Cl)cc2)cs1 | 49.8 | 40.6 | 55.5 | 17.1 | 18.7 | 53.2 | 17.8 | 40.1 | 50.1 | 18.1 |
| O=C(COc1ccccc1)Nc1nc(-c2ccc(Cl)cc2)cs1 | 56.8 | 53.5 | 44.2 | 42.8 | 60.3 | 55.3 | 42.9 | 53.2 | 55.5 | 55.9 |
| Cc1ccc(OCC(=O)Nc2nc(-c3ccc(Br)cc3)cs2)cc1 | 55.3 | 42.5 | 44.5 | 58.6 | 52.2 | 44.9 | 58.8 | 43.5 | 55.8 | 52.4 |
| Cc1cc(Cl)ccc1OCC(=O)Nc1nc(-c2ccc(Cl)cc2)cs1 | 52.1 | 40.1 | 52.1 | 43.1 | 40.6 | 52.4 | 43.4 | 40.6 | 52.4 | 40.1 |
| Cc1ccccc1OCC(=O)Nc1nc(-c2ccc(Br)cc2)cs1 | 44.5 | 62.2 | 44.5 | 49.8 | 40.1 | 44.9 | 50.1 | 62.8 | 44.9 | 39.7 |
| Cc1ccc(-c2csc(NC(=O)COc3ccc(Cl)cc3)n2)cc1 | 42 | 52.4 | 44.7 | 44.7 | 43.8 | 44.2 | 44 | 52.1 | 42.5 | 43.7 |
| O=C(COc1ccc(Cl)cc1)Nc1nc(-c2ccc(Br)cc2)cs1 | 40.6 | 60.3 | 51.7 | 46.4 | 41.1 | 52.1 | 46.1 | 55.9 | 40.1 | 41.4 |

Source: ChEMBL document CHEMBL4251560, “The Novel 4-Phenyl-2-Phenoxyacetamide Thiazoles modulates the tumor hypoxia leading to the crackdown of neoangiogenesis and evoking the cell death” (Eur J Med Chem, 2018)
